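Cultured in 96-well plates, cells were exposed to test compound for 48 hours across five concentrations. GI50 is the concentration that inhibits growth by half. TGI: concentration producing complete growth inhibition.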
Experiments:
Test in all cases: NCI-60 cell line screen, 48 h
[1] = test system: NCI-H522 lung
[2] = test system: SK-MEL-5 melanoma
[3] = test system: RPMI-8226 leukemia
[4] = test system: NCI-H226 lung
[5] = test system: KM12 colon
[6] = test system: SNB-19 CNS
[7] = test system: UACC-257 melanoma
[8] = test system: DU-145 prostate
[9] = test system: OVCAR-8 ovarian
[10] = test system: SK-MEL-2 melanoma

Compound	GI50 [1] [µM]	TGI [1] [µM]	GI50 [2] [µM]	TGI [2] [µM]	GI50 [3] [µM]	TGI [3] [µM]	GI50 [4] [µM]	TGI [4] [µM]	GI50 [5] [µM]	TGI [5] [µM]	GI50 [6] [µM]	TGI [6] [µM]	GI50 [7] [µM]	TGI [7] [µM]	GI50 [8] [µM]	TGI [8] [µM]	GI50 [9] [µM]	TGI [9] [µM]	GI50 [10] [µM]	TGI [10] [µM]
O=C(CCCCCCNC(=O)c1cnc(N(c2ccccc2)c2ccccc2)nc1)NO	0.786	5.66	1.82	5.48	1.29	> 100	16.6	> 91.4	3.26	21.7	3.67	31.3	2.23	30.5	3.82	> 100	2.25	> 100	1.9	8.36
C=C(CN1C(=O)CN(C)C1=O)c1ccc(C(=O)Nc2ccccc2N)cc1	4.04	36.2	12.2	32.8	2.32	14.8	23.6	> 100	28.6	> 100	38.5	> 100	5.89	30.4	25.9	> 100	6.78	> 100	30.9	> 100
CC(=O)NC1C(OC[C@@H](CC(=O)N[C@@H](CC(=O)O)CC(=O)N[C@H](CC(=O)N[C@@H](CCCN)CC(=O)N[C@@H](CCCN)CC(=O)N[C@H](CC(N)=O)C(C)C)C(C)C)NC(=O)C[C@@H](N)C(C)C)OC(CO)C(O)C1O (stereo partly specified)	> 100	> 100	> 100	> 100	> 100	> 100	> 100	> 100	> 100	> 100	> 100	> 100	> 100	> 100	> 100	> 100	> 100	> 100	> 100	> 100
C=C1C(=O)O[C@H]2[C@H]1CC/C(COC(=O)CSCSCC(=O)OC/C1=C/CC[C@@]3(C)O[C@H]3[C@H]3OC(=O)C(=C)[C@@H]3CC1)=C\CC[C@@]1(C)O[C@@H]21	1.48	3.2	1.95	4.33	0.597	3.71	3.51	13.9	1.93	3.77	2.44	5.99	1.89	4.67	1.66	3.19	1.93	4.96	2.29	5.24
CCCCON(OC(=O)c1ccc2ccccc2c1)C(=O)c1ccccc1	63	> 100	> 100	> 100	74.2	> 100	74	> 100	> 100	> 100	> 100	> 100	> 100	> 100	> 100	> 100	> 100	> 100	> 100	> 100
O=c1[nH]nnc2c1ncn2C1OC(CO)C(O)C1O (stereo unspecified)	6.49	> 100	32.9	> 100	6.71	> 100	10.3	> 100	11.8	> 100	> 100	> 100	14.1	> 100	1.38	> 100	4.73	> 100	0.707	12.2
C=C(C)[C@@H]1CC[C@]2(C)CC[C@]3(C)[C@H](CC[C@@H]4[C@@]5(C)CC[C@H](O)C(C)(C)[C@@H]5CC[C@]43C)[C@@H]12		55.7		> 100		> 100		> 86.5		> 100		> 62.8		> 80.8		> 100		> 64.2		> 100
COc1cc(C(O)CCBr)c(OC)cc1C (stereo unspecified)		> 66.3		> 38		> 100		> 100		> 86.7		> 100		> 100		> 100		> 46.8		68.2
O.O.[NH-]C1(C(=O)O)CCCC1.[NH-]C1(C(=O)O)CCCC1.[Ni+2]		> 100		> 100		> 100		> 100		> 100		> 100		> 100	> 100	> 100		> 100		> 100
CN(/N=C/c1cccc2cccnc12)c1ccc([N+](=O)[O-])cc1[N+](=O)[O-]		57.2		> 100		> 100		64.4		> 100		40.2		> 100		> 100		> 100		47.4
CCOC(=O)Nc1ccc2c(c1)/C(=N\NC(N)=S)c1ccccc1-2	3.84	12.7	2.44	7.59	2.49	12.9	4.43	17.6	3.29	13.6	9.92	> 100	3.55	12.7	5.15	20	3.77	13.8	4.95	15.8
C=C1C(=O)O[C@@H]2C[C@@H](C)[C@@H]3C=CC(=O)[C@@]3(C)[C@@H](O)[C@H]12		0.663		2.67		2.81		4.9		3.31		7.02		3.09		15.5		5.71		4.04
COc1cccc(N2CCN(CC(=O)N3CCN(c4nnc(-c5ccc(Cl)cc5)c(-c5ccc(Cl)cc5)n4)CC3)CC2)c1	19.8	> 100	8.55	> 100	4.63	> 100	88.3	> 100	14.3	> 100	37.9	> 100	51.7	> 100	> 100	> 100	29.4	> 100	35.1	> 100

From PubChem BioAssay (NCI)
